Columns and labels:
[1] = test system: MCF-7 GFP-Rab27B cells; test: type I collagen invasion assay; format: cell-based; details: Homo sapiens, MCF7, 24 hours, MCF-7 GFP-Rab27B cells on type I collagen, P<0.001
Procedure: (§1) For the type I collagen invasion assay, the following precooled components were gently combined and defined as type I collagen solution: four volumes of type I collagen (stock is 3.49 mg/mL), five volumes of calcium- and magnesium-free Hank's balanced salt solution, one volume of MEM (10×), one volume of 0.25 M NaHCO3, 2.65 volumes of culture medium and 0.3 volumes of 1 M NaOH. For each test-condition, 1.25 mL of type I collagen solution was added to one well of 6-well plate, homogeneously spread and gelified on a flat surface in a humidified atmosphere of 10% CO2 in air at 37° C. for at least one hour. […]
(§2) Cell morphology was studied and invasion was scored after 24 hours (De Wever et al., (44)). […] It was calculated as (perimeter)^2÷(4π area), which describes the deviation of an object from a geometric circle. […] The number of invasive and non-invasive cells was counted in ten randomly selected microscopic fields with a 20× objective and 10× eye piece by two blinded observers using an inverted phase contrast microscope (DMI 3000B, Leica, Wetzlar, Germany). The invasion index was calculated as the ratio of the number of cells that invaded the gel divided by the total number of cells counted in each field. […]

[2] = test system: MCF-7 cells; test: type I collagen invasion assay with recombinant HSP90 proteins; format: cell-based, human; details: 24 hours
Procedure: as §1, §2

[3] = test system: cyclin A in MCF-7 GFP cells; test: cyclin A expression with recombinant HSP90α, Western blot; format: cell-based, human; details: 10 μg/mL
Procedure: For Western blot analysis MCF-7 cells (1-10×10^6) were harvested in Laemmli lysis buffer (0.125 M Tris-HCl [pH=6.8], 10% glycerol, 2.3% SDS). Cell lysates (25 μg) and CM (20 μL) were suspended in 10 μL reducing sample buffer (1M Tris-HCl [pH=6.8], 30% glycerol, 6% SDS, 3% β-mercaptoethanol, 0.005% bromophenol blue) and boiled for 5 minutes at 95° C. Samples were run on NuPage 4-20% Bis-Tris gradient gels (Invitrogen), transferred to PVDF membranes, blocked in 5% non-fat milk in PBS with 0.5% Tween-20, and immunostained. Scanning densitometry was carried out with the Quantity One Program (Bio-Rad).

[4] = test system: MCF-7 GFP cells; test: cell proliferation assay with recombinant HSP90α; format: cell-based, human; details: 10 μg/mL added to culture medium; P<0.001
Procedure: To examine whether Rab27B affects cell proliferation in a GTP-, geranylgeranyl-, and HSP90α-dependent manner, three sets of experiments were conducted: 1) proliferation rates of MCF-7 cells stably expressing GFP, GFP-Rab27B, GFP-Rab27B Q78L, GFP-Rab27B T23N, and GFP-Rab27B GER were compared; 2) proliferation rates of MCF-7 GFP-Rab27B cells transiently targeted with control or Rab27B siRNAs were studied; and 3) proliferation rates of MCF-7 GFP cells, treated with recombinant HSP90α, and MCF-7 GFP-Rab27B cells, challenged with control IgG or anti-HSP90α neutralizing antibody, were evaluated. To obtain a growth curve under each condition, triplicate wells of seeded cells were each counted five times. Two investigators independently counted the total number of cells in each well every 2 days for a total of 8 days with the use of a manual hemocytometer.

COC1=C2C[C@@H](C)C[C@H](OC)[C@H](O)[C@@H](C)/C=C(\C)[C@H](OC(N)=O)[C@@H](OC)/C=C\C=C(/C)C(=O)NC(=CC1=O)C2=O [geldanamycin]
inhibition at 1 µM [1]: 85 to 100%

recombinant HSP90α: HSP90α recombinant protein obtained from Stressgen
type I collagen invasion ([2]; 1-10 μg/mL recombinant protein, P=0.04 at 5 μg/mL, P=0.003 at 10 μg/mL): dose-dependent increase | cyclin A expression [3]: increased cyclin A expression | proliferation of MCF-7 cells [4]: increased proliferation

recombinant HSP90β: HSP90β recombinant protein obtained from Stressgen
type I collagen invasion ([2]; 10 μg/mL recombinant protein): no effect

— patent US9103833B2, “Use of the GTPase Rab27B to diagnose and treat poor prognosis estrogen-receptor-positive breast cancer” (Universiteit Gent, priority 2009, dated 2015)
